Experimental data taken from US6358694B1, “Methods of identifying modulators of a prostaglandin receptor” (Merck Frosst Canada & Co., priority 1993, dated 2002).
pIC50: −log10 of the molar value.

Experiments:
cloned human FP receptor = molecular target: T1, cloned human FP receptor (Homo sapiens, UniProt P43088); test: [3H]PGF2α competition binding assay with membranes of pcDNAIamp-hFP transfected COS-M6 cells; settings: for rank order of potency for competition of [3H]PGF2α specific binding: transfected COS-M6 membranes, 0.03 nM-10 μM competitor
T1 construct: A long open reading frame (1077 bp) was determined which would result in a 359 amino acid polypeptide; expressed in transfected cells; host or cells: COS-M6 cells, transient DEAE-dextran transfection with pcDNAIamp-hFP; 100,000 x g membrane fraction
Experimental: The recently cloned human prostaglandin F2a (FP) receptor was subcloned into the pcDNA lamp plasmid (Invitrogen) and transfected into COS-M6 cells using the DEAE-dextran method. The cells were maintained in culture for 72 h, then harvested and membranes prepared by differential centrifugation (1000×g for 10 min, then 100,000×g for 30 min) following lysis of the cells by nitrogen cavitation. […] Incubations were conducted for 1 h at room temperature prior to separation of the bound and free radioligand by rapid filtration through Whatman GF/B filters presoaked at 4° C. in washing buffer ([…] (pH 6.0) containing 0.01% bovine serum albumin).

FP receptor [1] = molecular target: T2, FP receptor (Homo sapiens, UniProt P43088); test: aequorin luminescence assay in pcDNAIamp-FP-injected Xenopus oocytes; type: cell-based; settings: aequorin-loaded oocytes, compared to PGE2
T2 construct: A long open reading frame (1077 bp) was determined which would result in a 359 amino acid polypeptide; expressed in transfected cells; host or cells: Xenopus laevis oocytes (stage 5-6), nuclear injection of 1-5 ng pcDNAIamp-FP plasmid
Experimental: (§1) Ooctyes were taken from adult females of Xenopus laevis using standard surgical procedure (Colman, A., 1984 In: Transcription and Translation—A Practical Approach, IRL Press). To remove follicle cells, oocytes were treated for 2-3 h with freshly made collagenase (2 mg/ml, type 2, Worthington Biochemical Corp., Freehold, N.J.) in Ca^2+-free ND96 solution (ND96 in mM: NaCl 96, KCl 2, MgCl2 1, HEPES 5, Na-pyruvate 2.5, theophylline 0.5, gentamicin […], +1.8 CaCl2, pH 7.6). Defolliculated stage 5-6 oocytes were selected and maintained in ND96 solution. Ooctye nuclei were injected with 1-5 ng of pcDNAIamp-PP and then incubated at 18° C. for 48 h before challenge with agonist. Functional activity was determined by measurement of either agonist-induced Ca^2+-dependent Cl^− current or light emission in oocytes injected with the Ca^2+-specific photoprotein aequorin (J. Blinks, Friday Harbor Photoproteins, Wash.), (Giladi and Spindel 1991 Biotechniques, 10, pp 744-747). […] Ligand-containing solution was perfused and the current response was recorded. For the luminometric assay, aequorin-loaded oocytes (100 ng/oocyte) were placed individually in cuvettes containing 0.4 ml ND96 and the light emission provoked by ligand addition was recorded using a Bio-Orbit 1251 luminometer (Fisher Sci. Ltd.).

FP receptor [2] = molecular target: T2, FP receptor; test: electrophysiological assay (Ca2+-dependent Cl- current) in pcDNAIamp-FP-injected Xenopus oocytes; type: cell-based; settings: perfusion of 10 nM, oocyte voltage clamped at -60 mV
Experimental: as §1

T1 sequence (P43088 whole entry): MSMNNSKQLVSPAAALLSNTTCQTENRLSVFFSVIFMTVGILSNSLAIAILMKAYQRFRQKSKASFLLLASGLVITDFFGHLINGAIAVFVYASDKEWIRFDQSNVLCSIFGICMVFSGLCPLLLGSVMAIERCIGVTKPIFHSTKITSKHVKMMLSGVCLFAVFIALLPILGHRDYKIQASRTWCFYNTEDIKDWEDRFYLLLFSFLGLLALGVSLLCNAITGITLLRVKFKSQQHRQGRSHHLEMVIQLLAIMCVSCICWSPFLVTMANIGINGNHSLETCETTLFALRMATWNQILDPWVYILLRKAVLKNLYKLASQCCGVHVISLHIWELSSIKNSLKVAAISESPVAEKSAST
T2 sequence (P43088 whole entry): as above

pIC50 (cloned human FP receptor)	agonist potency from dose-response of aequorin light emission (FP receptor [1])	agonist-induced Ca2+-dependent Cl- current response (FP receptor [2])	SMILES	rank order of potency for competition of [3H]PGF2α specific binding (cloned human FP receptor)
8.46	more potent agonists	prominent current responses	O=C(O)CCC/C=C\C[C@@H]1[C@@H](/C=C/[C@@H](O)COc2cccc(C(F)(F)F)c2)[C@H](O)C[C@@H]1O (racemic) [fluprostenol]	PGF2α=fluprostenol>PGD2>>PGE2≈U46619>iloprost
			CCCCC[C@H](O)/C=C/[C@@H]1[C@@H](C/C=C\CCCC(=O)O)[C@H]2CO[C@@H]1C2 [U46619]	PGF2α=fluprostenol>PGD2>>PGE2≈U46619>iloprost
			CC#CCC(C)[C@H](O)/C=C/[C@@H]1[C@H]2C/C(=C/CCCC(=O)O)C[C@H]2C[C@H]1O (some centres unmarked) [iloprost]	PGF2α=fluprostenol>PGD2>>PGE2≈U46619>iloprost
			CCCCC[C@H](O)/C=C/[C@H]1C(=O)C[C@H](O)[C@@H]1C/C=C\CCCC(=O)O [PGD2]	PGF2α=fluprostenol>PGD2>>PGE2≈U46619>iloprost
			CCCCC[C@H](O)/C=C/[C@H]1[C@H](O)CC(=O)[C@@H]1C/C=C\CCCC(=O)O [PGE2]	PGF2α=fluprostenol>PGD2>>PGE2≈U46619>iloprost
